# Source: patent publication US20200022963A1, “PHARMACEUTICAL COMPOSITION COMPRISING BETAHISTINE” (Otolanum AG, priority 2017, published 2020)
# Experiment: Pharmacokinetic profile after single oral, intranasal and intravenous betahistine in beagle dogs, Example 5
# Assay type: in vivo
# Conditions: beagle, dog, in vivo; for concentration at 6 h / concentration at 24 h / concentration at 0 h / concentration at 5 min / concentration at 0.167 h / concentration at 0.333 h / concentration at 0.5 h / concentration at 1 h / concentration at 2 h / concentration at 3 h: Betahistine Plasma Concentration
# Description: In this study, the pharmacokinetic profile of betahistine was evaluated after a single dose administration of betahistine in male and female beagle dogs (age 5-7 months; weight of 5-11 kg, within a range of 3 kg for each sex) for three routes of administration: oral, intranasal, and intravenous.
# On Day 1 of the study, betahistine (BH) was delivered orally at a dose of 12 mg/kg, 24 mg/kg, or 48 mg/kg. Each treatment group comprised 8 animals (4 males and 4 females). For pharmacokinetic assessment, plasma samples were collected prior to dosing, and then at 5, 10, 20 and 30 min, 1, 2, 3, 6, 24 hours after dosing.
# On Day 8 of the study, the animals that received oral BH at a dose of 12 mg/kg were administered the test betahistine composition intranasally at a dose of 40 mg betahistine dihydrochloride; the animals that received oral BH at a dose of 24 mg/kg were administered the test betahistine composition intranasally at a dose of 80 mg betahistine dihydrochloride; and the animals that received oral BH at a dose of 48 mg/kg were administered the test betahistine composition intranasally at a dose of 120 mg betahistine dihydrochloride. The test betahistine composition was delivered intranasally in a single dose via an Aptar nasal spray pump device at a total dose level of 40, 80 and 120 mg of betahistine dihydrochloride. Plasma samples were collected prior to dosing, and then at 5, 10, 20 and 30 min, 1, 2, 3, 6, 24 hours after dosing.
# On Day 15 of the study, the animals that received oral BH at a dose of 12 mg/kg and the test betahistine composition intranasally at a dose of 40 mg betahistine dihydrochloride were administered a bolus intravenous injection of betahistine at a dose of 0.44 mg/kg. Plasma samples were collected prior to dosing, and then at 5, 10, 20 and 30 min, 1, 2, 3, 6, 24 hours after dosing.
# Betahistine 13CD3 dihydrochloride and 2-pyridylacetic acid-D4 hydrochloride were used as respective internal standards. The calibration range for betahistine was 0.05-250 ng/mL and for 2-PAA 2.00-3000 ng/mL using a plasma sample volume of 0.50 mL.
# For determination of betahistine, the method involved liquid-liquid extraction, for 2-PAA, the method involved protein precipitation. Plasma samples were prepared for betahistine by extraction under basic conditions with an organic solvent, then the organic phase was dried, reconstituted and transferred for LC/MS-MS analysis. […] Sample analysis was performed using reversed phase chromatography.
# [1] = male, inhaled or intranasal, 5 mg/kg
# [2] = male, inhaled or intranasal, 9.8 mg/kg
# [3] = male, inhaled or intranasal, 15.8 mg/kg
smiles,measurement,setting,value
CNCCc1ccccn1 [betahistine],concentration at 6 h,"female, po, 24 mg/kg",0.342 ng/mL
same,concentration at 24 h,"female, po, 24 mg/kg",0 ng/mL
same,AUC(0-6)/D,"female, po, 48 mg/kg",1.61 ± 0.528 hr*ng/mL/(mg/kg)
same,AUC(0-inf),"female, po, 48 mg/kg",69.2 ± 23.3 ng·h/mL
same,Cmax,"female, po, 48 mg/kg",33.5 ± 9.11 ng/mL
same,Cmax/D,"female, po, 48 mg/kg",0.697 ± 0.190 ng/mL/(mg/kg)
same,Oral AUC/dose,"female, po, 48 mg/kg",1.61 (h · ng/mL)/(mg/kg)
same,Tmax,"female, po, 48 mg/kg",60 min
same,half-life,"female, po, 48 mg/kg",35.9 min
same,AUC(0-t),"female, po, 48 mg/kg, AUC(0-6)",77.5 ± 25.4 ng·h/mL
same,AUC(0-t),"female, po, 48 mg/kg, AUC(0-t)",77.5 ± 25.4 ng·h/mL
same,concentration at 0 h,"female, po, 48 mg/kg",0 ng/mL
same,concentration at 5 min,"female, po, 48 mg/kg",9.87 ng/mL
same,concentration at 0.167 h,"female, po, 48 mg/kg",9.24 ng/mL
same,concentration at 0.333 h,"female, po, 48 mg/kg",11.5 ng/mL
same,concentration at 0.5 h,"female, po, 48 mg/kg",19.4 ng/mL
same,concentration at 1 h,"female, po, 48 mg/kg",32.8 ng/mL
same,concentration at 2 h,"female, po, 48 mg/kg",21.3 ng/mL
same,concentration at 3 h,"female, po, 48 mg/kg",10.1 ng/mL
same,concentration at 6 h,"female, po, 48 mg/kg",0.64 ng/mL
same,concentration at 24 h,"female, po, 48 mg/kg",0 ng/mL
same,AUC(0-inf),[1],131 ng·h/mL
same,AUC(0-t)/D,[1],36.4 ± 24.4 hr*ng/mL/(mg/kg)
same,Cmax,[1],598 ng/mL
same,Cmax/D,[1],120 ± 90.1 ng/mL/(mg/kg)
same,Intranasal AUC/dose,[1],36.4 (h · ng/mL)/(mg/kg)
same,Tmax,[1],10.2 min
same,AUC(0-t),"male, inhaled or intranasal, 5 mg/kg, AUC(0-6)",178 ± 122 ng·h/mL
same,AUC(0-t),"male, inhaled or intranasal, 5 mg/kg, AUC(0-t)",182 ± 122 ng·h/mL
same,AUC(0-inf),[2],202 ± 156 ng·h/mL
same,AUC(0-t)/D,[2],17.5 ± 14.3 hr*ng/mL/(mg/kg)
same,Cmax,[2],735 ng/mL
same,Cmax/D,[2],75.0 ± 56.9 ng/mL/(mg/kg)
same,Intranasal AUC/dose,[2],17.5 (h · ng/mL)/(mg/kg)
same,Tmax,[2],7.8 min
same,AUC(0-t),"male, inhaled or intranasal, 9.8 mg/kg, AUC(0-6)",168 ± 140 ng·h/mL
same,AUC(0-t),"male, inhaled or intranasal, 9.8 mg/kg, AUC(0-t)",172 ± 140 ng·h/mL
same,AUC(0-t)/D,[3],12.6 ± 4.97 hr*ng/mL/(mg/kg)
same,Cmax,[3],765 ng/mL
same,Cmax/D,[3],48.4 ± 23.7 ng/mL/(mg/kg)
same,Intranasal AUC/dose,[3],12.6 (h · ng/mL)/(mg/kg)
same,Tmax,[3],7.8 min
same,AUC(0-t),"male, inhaled or intranasal, 15.8 mg/kg, AUC(0-6)",194 ± 79.8 ng·h/mL
same,AUC(0-t),"male, inhaled or intranasal, 15.8 mg/kg, AUC(0-t)",199 ± 78.5 ng·h/mL
same,AUC(0-inf),"male, iv, 0.44 mg/kg",18.4 ng·h/mL
same,AUC(0-t)/D,"male, iv, 0.44 mg/kg",44.3 ± 11.5 hr*ng/mL/(mg/kg)
same,Cmax,"male, iv, 0.44 mg/kg",58.2 ng/mL
same,Cmax/D,"male, iv, 0.44 mg/kg",132 ng/mL/(mg/kg)
same,Tmax,"male, iv, 0.44 mg/kg",4.8 min
same,Vd,"male, iv, 0.44 mg/kg",32.1 L/kg
same,clearance,"male, iv, 0.44 mg/kg",398 mL/min/kg
same,half-life,"male, iv, 0.44 mg/kg",55.8 min
same,AUC(0-t),"male, iv, 0.44 mg/kg, AUC(0-6)",19.5 ng·h/mL
same,AUC(0-t),"male, iv, 0.44 mg/kg, AUC(0-t)",19.5 ng·h/mL
same,concentration at 0 h,"male, iv, 0.44 mg/kg",0.11 ng/mL
same,concentration at 5 min,"male, iv, 0.44 mg/kg",58.2 ng/mL
same,concentration at 0.167 h,"male, iv, 0.44 mg/kg",29.1 ng/mL
same,concentration at 0.333 h,"male, iv, 0.44 mg/kg",8.06 ng/mL
same,concentration at 0.5 h,"male, iv, 0.44 mg/kg",5.57 ng/mL
same,concentration at 1 h,"male, iv, 0.44 mg/kg",0.349 ng/mL
same,concentration at 2 h,"male, iv, 0.44 mg/kg",0.993 ng/mL
same,concentration at 3 h,"male, iv, 0.44 mg/kg",0.081 ng/mL
same,concentration at 6 h,"male, iv, 0.44 mg/kg",1.05 ng/mL
same,concentration at 24 h,"male, iv, 0.44 mg/kg",0 ng/mL
same,AUC(0-6)/D,"male, po, 12 mg/kg",1.04 ± 0.168 hr*ng/mL/(mg/kg)
same,AUC(0-inf),"male, po, 12 mg/kg",13.3 ng·h/mL
same,Cmax,"male, po, 12 mg/kg",18.9 ± 9.99 ng/mL
same,Cmax/D,"male, po, 12 mg/kg",1.58 ± 0.833 ng/mL/(mg/kg)
same,Oral AUC/dose,"male, po, 12 mg/kg",1.04 (h · ng/mL)/(mg/kg)
same,Tmax,"male, po, 12 mg/kg",30 min
same,half-life,"male, po, 12 mg/kg",18.8 min
same,AUC(0-t),"male, po, 12 mg/kg, AUC(0-6)",13 ± 2.23 ng·h/mL
same,AUC(0-t),"male, po, 12 mg/kg, AUC(0-t)",12.5 ± 2.02 ng·h/mL
same,concentration at 0 h,"male, po, 12 mg/kg",0 ng/mL
same,concentration at 5 min,"male, po, 12 mg/kg",1.35 ng/mL
same,concentration at 0.167 h,"male, po, 12 mg/kg",2.73 ng/mL
same,concentration at 0.333 h,"male, po, 12 mg/kg",5.8 ng/mL
same,concentration at 0.5 h,"male, po, 12 mg/kg",18.9 ng/mL
same,concentration at 1 h,"male, po, 12 mg/kg",5.65 ng/mL
same,concentration at 2 h,"male, po, 12 mg/kg",0.457 ng/mL
same,concentration at 3 h,"male, po, 12 mg/kg",0.036 ng/mL
same,concentration at 6 h,"male, po, 12 mg/kg",0.016 ng/mL
same,concentration at 24 h,"male, po, 12 mg/kg",0.021 ng/mL
same,AUC(0-6)/D,"male, po, 24 mg/kg",1.44 ± 0.714 hr*ng/mL/(mg/kg)
same,AUC(0-inf),"male, po, 24 mg/kg",34.6 ± 17.1 ng·h/mL
same,Cmax,"male, po, 24 mg/kg",38.3 ± 28.1 ng/mL
same,Cmax/D,"male, po, 24 mg/kg",1.60 ± 1.17 ng/mL/(mg/kg)
same,Oral AUC/dose,"male, po, 24 mg/kg",1.44 (h · ng/mL)/(mg/kg)
same,Tmax,"male, po, 24 mg/kg",60 min
same,half-life,"male, po, 24 mg/kg",47.1 min
same,AUC(0-t),"male, po, 24 mg/kg, AUC(0-6)",34.5 ± 17.2 ng·h/mL
same,AUC(0-t),"male, po, 24 mg/kg, AUC(0-t)",34.5 ± 17.1 ng·h/mL
same,concentration at 0 h,"male, po, 24 mg/kg",0 ng/mL
same,concentration at 5 min,"male, po, 24 mg/kg",4.69 ng/mL
same,concentration at 0.167 h,"male, po, 24 mg/kg",5.05 ng/mL
same,concentration at 0.333 h,"male, po, 24 mg/kg",23.9 ng/mL
same,concentration at 0.5 h,"male, po, 24 mg/kg",17.8 ng/mL
same,concentration at 1 h,"male, po, 24 mg/kg",26.9 ng/mL
same,concentration at 2 h,"male, po, 24 mg/kg",2.08 ng/mL
same,concentration at 3 h,"male, po, 24 mg/kg",0.611 ng/mL
same,concentration at 6 h,"male, po, 24 mg/kg",0.078 ng/mL
same,concentration at 24 h,"male, po, 24 mg/kg",0 ng/mL
same,AUC(0-6)/D,"male, po, 48 mg/kg",2.73 ± 0.590 hr*ng/mL/(mg/kg)
same,AUC(0-inf),"male, po, 48 mg/kg",133 ng·h/mL
same,Cmax/D,"male, po, 48 mg/kg",2.13 ± 0.628 ng/mL/(mg/kg)
same,Oral AUC/dose,"male, po, 48 mg/kg",2.73 (h · ng/mL)/(mg/kg)
same,Tmax,"male, po, 48 mg/kg",60 min
same,half-life,"male, po, 48 mg/kg",31.3 min
same,AUC(0-t),"male, po, 48 mg/kg, AUC(0-6)",131 ± 28.3 ng·h/mL
same,AUC(0-t),"male, po, 48 mg/kg, AUC(0-t)",131 ± 28.3 ng·h/mL
same,concentration at 0 h,"male, po, 48 mg/kg",0 ng/mL
same,concentration at 5 min,"male, po, 48 mg/kg",14.3 ng/mL
same,concentration at 0.167 h,"male, po, 48 mg/kg",35.7 ng/mL
same,concentration at 0.333 h,"male, po, 48 mg/kg",14.3 ng/mL
same,concentration at 0.5 h,"male, po, 48 mg/kg",33.7 ng/mL
same,concentration at 1 h,"male, po, 48 mg/kg",80.2 ng/mL
same,concentration at 2 h,"male, po, 48 mg/kg",21.7 ng/mL
same,concentration at 3 h,"male, po, 48 mg/kg",3 ng/mL
same,concentration at 6 h,"male, po, 48 mg/kg",0.238 ng/mL
same,concentration at 24 h,"male, po, 48 mg/kg",0 ng/mL
